Laboratory results taken from patent US7615641B2, “Long chain aliphatic alcohol derivatives and methods of making and using same” (Sino Pharmaceuticals Corporation, priority 2004, dated 2009).

Row | melting point | Structure (SMILES)
1 | 58 to 60 °C | CCCCCCCCCCCCCCCCCCCCCCCCCCCCOC(=O)c1cccnc1.Cl
2 | 65 to 70 °C | CCCCCCCCCCCCCCCCCCCCCCCCCCCCOC(=O)c1cccnc1 [1-octacosanyl nicotinate]
